pIC50: −log10 of the molar value.
Experiments:
[1] = target: HIV integrase (Human immunodeficiency virus type 1 group M subtype B, UniProt P04585); experiment: biochemical
Experimental: The inhibitory activities against integrase were determined by the assay described below. • (1) Preparation of DNA Solutions
Before using the DNA solutions, complementary chains were annealed by slowly cooling after boiling.
Streptavidin, obtained from Vector Laboratories, was dissolved in 0.1 M carbonate buffer (composition: 90 mM Na2CO3, 10 mM NaHCO3) at concentration of 40 μg/ml. After coating each well of immunoplates (obtained from NUNC) with 50 μl of the above solution at 4° C. over night, each well was washed twice with PBS (composition: 13.7 mM NaCl, 0.27 mM KCl, 0.43 mM Na2HPO4, 0.14 mM KH2PO4) and blocked with 300 μl of 1% skim milk in PBS for 30 min. Additionally, each well was washed twice with PBS and added 50 μl of substrate DNA solution (2 pmol/μl). The immunoplates were kept at room temperature for 30 min while shaking. Then, each well was washed twice with PBS and once with the distilled water.
Subsequently, in the each well prepared above were added 51 μl of the reaction solution prepared from 12 μl of the buffer (composition: 150 mM MOPS (pH7.2), 75 mM MnCl2, 50 mM 2-mercaptoethanol, 25% glycerol, 500 μg/ml bovine serum albumin-fraction V), and 39 μl of the distilled water. Then 9 μl of an integrase solution (30 pmol) was added and mixed well. In the well of negative control (NC) was added 9 μl of the integrase dilution buffer (composition: 20 mM MOPS (pH7.2), 400 mM potassium glutamate, 1 mM EDTA, 0.1% NP-40, 20% glycerol, 1 mM DTT, 4M urea), and mixed well using a plate mixer.
The plates were incubated at 30° C. for 60 minutes. The reaction solution was removed and washed three times with 250 μl of washing buffer (composition: 150 mM MOPS (pH7.2), 50 mM 2-mercaptoethanol, 25% glycerol, 500 μg/ml bovine serum albumin-fraction V).
Then each well was added with 53 μl of reaction solution prepared from 12 μl of buffer (composition: 150 mM MOPS (pH7.2), 75 mM MgCl2, 50 mM 2-mercaptoethanol, 25% glycerol, 500 μg/ml bovine serum albumin-fraction V) and 41 μl of distilled water. Further, each well was added with 6 μl of DMSO solution of a compound to be tested, and the well of positive control (PC) was added with 6 μl of DMSO, and mixed well by a plate mixer. After incubating the plate for 30 minutes at 30° C., was added 1 μl of target DNA (5 pmol/μl), and mixed well by a plate mixer.
After incubation for 10 minutes at 30° C., each plate was washed twice with PBS after removal of the reaction solution. Then, 100 μl of ×2000 diluted solution of anti-digoxigenin antibody labeled with alkaline phosphatase (sheep Fab fragment: Boehringer) was added allowed to bind for 1 hour at 30° C., and washed twice with PBS containing 0.05% Tween20 and once with PBS in this sequence. Next, 150 μl of the Alkaline phosphatase coloring buffer (composition: 10 mM p-Nitrophenylphosphate (obtained from Vector Laboratories), 5 mM MgCl2, 100 mM NaCl, 100 mM Tris-HCl (pH 9.5)) was added and allowed to react for 2 hours at 30° C. Then the reaction was terminated by the addition of 50 μl of 1N NaOH solution. The optical density at 405 nm (OD405nm) of each well was measured and the inhibition rate (IC50) was determined by the following expression. The inhibition rate(%)=100[1−{(C abs.−NC abs.)/(PC abs.−NC abs.)}]
C abs.; the OD of the well of the compound
NC abs.: the OD of the negative control (NC)
PC abs.: the OD of the positive control (PC)

## COCC=Cc1nc(C(=O)NCCOC)c(O)c2ncc(Cc3ccc(F)cc3)cc12 [Example B-4, 3-(4-fluorobenzyl)-8-hydroxy-5-(3-methoxypropenyl)[1,6]naphthyridine-7-carboxylic acid (2-methoxyethyl)amide]
other
  melting point: 125 to 126 °C
[1]
  pIC50: 7.95

## COCCNC(=O)c1nc(C(=O)OC)c2cc(Cc3ccc(F)cc3)cnc2c1O [Example A-1, Methyl 3-(4-fluorobenzyl)-8-hydroxy-7-(2-methoxyethylcarbamoyl) [1,6]naphthyridine-5-carbonate]
other
  melting point: 168 to 169 °C
[1]
  pIC50: 8.24

## COCC(=O)Nc1nc(C(=O)NCCN(C(C)C)C(C)C)c(O)c2ncc(Cc3ccc(F)cc3)cc12 [Example B-6, 3-(4-fluorobenzyl)-8-hydroxy-5-(2-methoxyacetylamino)[1,6]naphthyridine-7-carboxylic acid (2-diisopropylaminoethyl)amide]
other
  melting point: 69 to 70 °C
[1]
  pIC50: 6.85

## COCC(=O)Nc1nc(C(=O)NCCOC(C)C)c(O)c2ncc(Cc3ccc(F)cc3)cc12 [Example B-7, 3-(4-fluorobenzyl)-8-hydroxy-5-(2-methoxyacetylamino)[1,6]naphthyridine-7-carboxylic acid (2-isopropoxyethyl)amide]
other
  melting point: 149 to 150 °C
[1]
  pIC50: 7.50

## COCC=Cc1nc(C(=O)NN(C)C)c(O)c2ncc(Cc3ccc(F)cc3)cc12 [Example B-19, 3-(4-fluorobenzyl)-8-hydroxy-5-(3-methoxypropenyl)[1,6]naphthyridine-7-carboxylic acid N′,N′-dimethylhydrazide]
other
  melting point: 115 to 116 °C
[1]
  pIC50: 7.95

## COCCCNC(=O)c1nc(NC(=O)COC)c2cc(Cc3ccc(F)cc3)cnc2c1O [Example B-5, 3-(4-fluorobenzyl)-8-hydroxy-5-(2-methoxyacetylamino)[1,6]naphthyridine-7-carboxylic acid (3-methoxypropyl) amide]
other
  melting point: 159 to 160 °C
[1]
  pIC50: 7.40

## COCCN(C)C(=O)c1nc(NC(=O)COC)c2cc(Cc3ccc(F)cc3)cnc2c1O [Example B-16, 3-(4-fluorobenzyl)-8-hydroxy-5-(2-methoxyacetylamino)[1,6]naphthyridine-7-carboxylic acid (2-methoxyethyl)methylamide]
other
  melting point: 66 to 68 °C
[1]
  pIC50: 7.24

## COCCNC(=O)c1nc(C(C)O)c2cc(Cc3ccc(F)cc3)cnc2c1O (stereo not shown) [Example B-3, 3-(4-fluorobenzyl)-8-hydroxy-5-(1-hydroxyethyl)[1,6]naphthyridine-7-carboxylic acid (2-methoxyethyl) amide]
other
  melting point: 179 °C
[1]
  pIC50: 7.77

## COCCNC(=O)c1nc(NC(C)=O)c2cc(Cc3ccc(F)cc3)cnc2c1O [Example A-2, 5-acetylamino-3-(4-fluorobenzyl)-8-hydroxy[1,6]naphthyridine-7-carboxylic acid 2-methoxyethyl amide]
other
  melting point: 216 to 217 °C
[1]
  pIC50: 7.34

## CC(O)c1nc(C(=O)NN(C)C)c(O)c2ncc(Cc3ccc(F)cc3)cc12 (stereo not shown) [Example B-18, 3-(4-fluorobenzyl)-8-hydroxy-5-(1-hydroxyethyl)[1,6]naphthyridine-7-carboxylic acid N′,N′-dimethylhydrazide]
other
  melting point: 114 to 116 °C
[1]
  pIC50: 7.35

## COCC(=O)Nc1nc(C(=O)NC(C)C(=O)OC)c(O)c2ncc(Cc3ccc(F)cc3)cc12 (stereo not shown) [Example B-11, Methyl 2-{[3-(4-fluorobenzyl)-8-hydroxy-5-(2-methoxyacetylamino)[1,6]naphthyridine-7-carbonyl]amino}propionate]
other
  melting point: 181 to 182 °C
[1]
  pIC50: 7.29

Source: US7919623B2, “Naphthyridine derivatives having inhibitory activity against HIV integrase” (Shionogi & Co., Ltd., priority 2004, dated 2011)
